Measured values: article PMC11984924, “Dipeptidic Phosphonates: Potent Inhibitors of Pseudomonas aeruginosa Elastase B Showing Efficacy in a Murine Keratitis Model” (Advanced Science, 2025)
Where “and” joins values, the source holds several entries; their conditions need not be identical. Equal values may be shown once.

Experiments:
[1] = Kinetic solubility in PBS pH 7.4; assay type: physicochemical; details: aqueous buffer, kinetic from dmso stock
Method: The desired compounds were sequentially diluted in DMSO in a 96-well plate. 1.5 µL of each well were transferred into another 96-well plate and mixed with 148.5 µL of PBS. Plates were shaken for 5 min at 600 rpm at room temperature (r.t.), and the absorbance at 620 nm was measured. Absorbance values were normalized by blank subtraction and plotted using GraphPad Prism 8.4.2 (GraphPad Software, San Diego, CA, USA). […]

Plasma stability, human = assay type: in vitro ADME; details: read-out: Plasma t1/2 Human
Method: To determine stability in plasma, the compound (1 µM) was incubated with pooled CD -1 […]
mouse/human/Wistar rat or Göttingen minipig plasma (Neo Biotech, Nanterre, France).
Samples were taken by mixing aliquots with 4 volumes of acetonitrile containing internal […]
standard (125 nM diphenhydramine). The plasma stability of procain, propantheline and diltiazem were determined in parallel to confirm the enzymatic activity. Samples were stored […]
on ice until the end of the incubation and precipitated protein was removed by centrifugation […]
(15 min, 4 °C, 4,000 g, two centrifugation steps). Concentration of the remaining test compound at the different time points was analyzed by HPLC-MS/MS (TSQ Quantum Access MAX, […]
Thermo Fisher, Dreieich, Germany) and used to determine half-life (t1/2).
Table S2: Additional in vitro ADMET data for selected dipeptides. n.d.: not determined.
Kinetic Liver S9 Clint [µL/mg/min] Plasma t1/2 [min] LogD7.4 […]
pH 7.4 [µM] Mouse Human Mouse Human

[2] = Metabolic stability in mouse liver S9 fraction; assay type: in vitro ADME; details: C57BL/6, liver S9 fraction; mouse liver S9, 1 µM
Method: (§1) page 57: 3. Biological evaluation 3.1 In vitro inhibition assays […] MMPs, TACE). […] inhibitor screening kits were purchased from Sigma-Aldrich (Saint Louis, MO). MMPs along with the SensoLyte 520 Generic MMP Activity Kit Fluorimetric were purchased from AnaSpec (Fremont, CA, USA). The assays were performed according to the guidelines of the respective manufacturer. Fluorescence signals were measured using a CLARIOstar plate reader (BMG Labtech, Ortenberg, Germany). 3.2 Kinetic solubility […] well were transferred into another 96-well plate and mixed with 148.5 µL of PBS. Plates were shaken for 5 min at 600 rpm at room temperature (r.t.), and the absorbance at 620 nm was measured. Absorbance values were normalized by blank subtraction and plotted using GraphPad Prism 8.4.2 (GraphPad Software, San Diego, CA, USA). Solubility (S) was […] 3.3 Lipophilicity determination LogD7.4 was analyzed using an HPLC−based method. The UV retention time of reference […] Linear […] Analysis was performed using a Vanquish Flex HPLC system with variable wavelength detector (Thermo Fisher, Dreieich, Germany) with the following conditions: EC150/2 NUCLEODUR C18 Pyramid column, 5 μM (Macherey Nagel, Düren, Germany); eluent A: 50 mM NH4OAc pH 7.4, eluent B: acetonitrile, and flow: 0.6 mL/min. […] 3.4 Metabolic stability in liver S9 fractions For the evaluation of combined phase I and phase II metabolic stability, the compound (1 μM) was incubated with 1 mg/mL pooled mouse liver S9 fraction (C57BL/6, Xenotech, Kansas Cit y, USA) or human liver S9 fraction (Corning, USA), 2 mM NADPH, 1 mM UDPGA, 10 mM MgCl2, 5 mM GSH and 0.1 mM PAPS at 37 °C for 120 min. The metabolic stability of testosterone, verapamil and ketoconazole were determined in parallel to confirm the enzymatic activity of S56 page 58: mouse S9 fractions, for human S9 testosterone, diclofenac and propranolol were used. The incubation was stopped after defined time points by precipitation of aliquots of S9 enzymes […] Samples were stored on ice until the end of the incubation and precipitated protein was removed by centrifugation (15 min, 4 °C, 4,000 g). Concentration of the remaining test compound at the different time points was analyzed by HPLC-MS/MS (TSQ Quantum Access MAX, Thermo Fisher, Dreieich, Germany) and used to determine half -life (t1/2) and intrinsic clearance (Clint). Species profiling was conducted as above using 0.5 mg/mL pooled mouse, rat or minipig liver microsomes (Xenotech, Kansas City, USA) with 2 mM NADPH and 10 mM MgCl2 and testosterone, verapamil and ketoconazole as reference compounds. 3.5 Plasma stability To determine stability in plasma, the compound (1 µM) was incubated with pooled CD -1 mouse/human/Wistar rat or Göttingen minipig plasma (Neo Biotech, Nanterre, France). Samples were taken by mixing aliquots with 4 volumes of acetonitrile containing internal standard (125 nM diphenhydramine). The plasma stability of procain, propantheline and diltiazem were determined in parallel to confirm the enzymatic activity. Samples were stored on ice until the end of the incubation and precipitated protein was removed by centrifugation (15 min, 4 °C, 4,000 g, two centrifugation steps). Concentration of the remaining test compound at the different time points was analyzed by HPLC-MS/MS (TSQ Quantum Access MAX, Thermo Fisher, Dreieich, Germany) and used to determine half-life (t1/2). Table S2: Additional in vitro ADMET data for selected dipeptides. n.d.: not determined. […] Compound Solubility PBS pH 7.4 [µM] Mouse Human Mouse Human […] S57

[3] = Metabolic stability in human liver S9 fraction; assay type: in vitro ADME; details: human liver S9, 1 µM
Method: as §1

LasB = target: T1, LasB (Pseudomonas aeruginosa, UniProt Q02RJ6); assay: In vitro LasB inhibition assay; assay type: biochemical; details: IC50 LasB inhibition
T1 construct: made in house
T1 sequence (Q02RJ6 198-498): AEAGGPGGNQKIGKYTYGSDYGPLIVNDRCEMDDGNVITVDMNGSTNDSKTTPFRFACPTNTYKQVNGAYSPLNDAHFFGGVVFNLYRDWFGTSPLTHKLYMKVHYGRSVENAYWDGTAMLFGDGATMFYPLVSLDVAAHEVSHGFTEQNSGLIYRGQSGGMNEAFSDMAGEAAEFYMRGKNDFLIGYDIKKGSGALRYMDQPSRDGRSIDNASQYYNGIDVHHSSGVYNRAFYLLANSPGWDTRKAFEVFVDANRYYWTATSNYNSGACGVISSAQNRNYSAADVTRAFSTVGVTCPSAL
Method: 3.1 In vitro inhibition assays
LasB was expressed and purified as described previously.[3] In vitro inhibition assays (LasB,
MMPs, TACE). All in vitro inhibition assays were performed as described previously.[10] […]
Fluorescence signals were measured using a CLARIOstar plate reader (BMG
Labtech, Ortenberg, Germany). […]

[4] = system: Pseudomonas aeruginosa strain PA14; assay: Antibacterial effect on P. aeruginosa PA14 growth; assay type: cell-based; details: PA14, read-out: P. aeruginosa PA14 % inhibition of growth at 100 µM, 18 h, 37 °C
Method: Table S14: Food consumption after treatment with (R)-30.
Table S15: Body and organ weights (gram) after treatment with (R)-30.
3.12 Antibacterial effects
As start OD600 of Pseudomonas aeruginosa strain PA14 we used 0.03 in a total volume of 200
µL in lysogeny broth containing the compounds predissolved in DMSO (max. 1%). Final
compound concentrations prepared from serial dilutions ranged from 3.125 to 100 µM (double
values for each concentration). The ODs were determined after addition of the compounds and
again after incubation for 18 h at 37 °C and 200 rpm in 96 well plates (Sarstedt, Nümbrecht,
Germany) using a FLUOStar Omega (BMG labtech, Ortenberg, Germany). Given percent (%)
inhibition values are means of at least two independent determinations. To obtain the values
for a given compound, their ODs were compared to those of DMSO controls. Concerning the […]

[5] = Lipophilicity determination (HPLC-based LogD7.4); assay type: physicochemical; details: C18 column; pH 7.4, HPLC-based
Method: LogD7.4 was analyzed using an HPLC−based method. The UV retention time of reference compounds with known LogD7.4 was determined and plotted toward their LogD7.4. Linear regression was used to determine the LogD7.4 of unknown compounds. Analysis was performed using a Vanquish Flex HPLC system with variable wavelength detector (Thermo Fisher, Dreieich, Germany) with the following conditions: EC150/2 NUCLEODUR C18 Pyramid column, 5 μM (Macherey Nagel, Düren, Germany); eluent A: 50 mM NH4OAc pH 7.4, eluent B: acetonitrile, and flow: 0.6 mL/min.

Row | Compound | solubility kinetic at 5 min [1] [µM] | half-life at 1 µM (Plasma stability, human) [h] | microsomal CLint at 1 µM [2] [µL/min/mg] | microsomal CLint at 1 µM [3] [µL/min/mg] | IC50 (LasB) | inhibition at 100 µM [4] [%] | chromatographic logD [5]
1 | CC(=O)c1ccc(NC(=O)[C@@H](NC(=O)[C@@H](CC(C)C)P(=O)(O)O)C(C)C)cc1 [(R)‐30] | > 200 | > 2.5 | < 5.8 | < 5.8 | 4 nM and 3.7 nM | < 10 | 
2 | CC(C)C[C@H](C(=O)N[C@H](C(=O)Nc1ccc(-n2ccnc2)cc1)C(C)C)P(=O)(O)O [(R)‐36] | > 200 | > 2.5 | < 5.8 | < 5.8 | 10.9 ± 0.3 nM | < 10 | -0.67
3 | CC(C)CC(C(=O)N[C@H](C(=O)Nc1ccc(Cl)c(Cl)c1)C(C)C)P(=O)(O)O (some centres unmarked) [compound 9] | > 200 | > 2.5 | < 5.8 | < 5.8 |  | < 10 | 
4 | CC(C)CC(C(=O)N[C@H](C(=O)Nc1ccc(Cl)c(Cl)c1)C1CCC1)P(=O)(O)O (some centres unmarked) [compound 13] | > 200 | > 2.5 | < 5.8 | < 5.8 | 11.9 ± 0.3 nM | < 10 | -0.58
5 | CC(C)CC(C(=O)N[C@H](C(=O)Nc1ccc(Cl)c(Cl)c1)C1CCCCC1)P(=O)(O)O (some centres unmarked) [compound 14] | > 200 | > 2.5 | < 5.8 | < 5.8 | 12.4 ± 0.3 nM | < 10 | 1.14
6 | CC(=O)c1ccc(NC(=O)[C@@H](NC(=O)C(CC(C)C)P(=O)(O)O)C(C)C)cc1 (some centres unmarked) [compound 30] | > 200 | > 2.5 | < 5.8 | < 5.8 | 5 ± 0.2 nM | < 10 | 
